Experimental data taken from ChEMBL document CHEMBL3608244, “Left-Hand Side Exploration of Novel Bacterial Topoisomerase Inhibitors to Improve Selectivity against hERG Binding” (ACS Med Chem Lett, 2015).
≈ marks a conversion by molar mass, not a printed value.

What was measured:
Type in all cases: functional
[1] = tested on: Mycobacterium tuberculosis; assay: Antimycobacterial activity against 1-(2-(4-((5-chloro-6-methylpyridin-3-yl)methylamino)piperidin-1-yl)ethyl)-7-fluoro-1,5-naphthyridin-2(1H)-one resistant Mycobacterium tuberculosis H37Rv harboring DNA gyraseA D89N mutant incubated for 7 days by microdilution method
[2] = tested on: Mycobacterium tuberculosis; assay: Ratio of MIC for 6-((1-(2-(7-chloro-2-oxo-1,8-naphthyridin-1(2H)-yl)ethyl)piperidin-4-ylamino)methyl)-2H-pyrido[3,2-b][1,4]oxazin-3(4H)-one resistant Mycobacterium tuberculosis H37Rv harboring DNA gyraseA A74V mutant to MIC for Mycobacterium tuberculosis H37Rv ATCC 27294
[3] = tested on: Mycobacterium tuberculosis; assay: Antimycobacterial activity against moxifloxacin resistant Mycobacterium tuberculosis H37Rv harboring DNA gyraseA G88N mutant incubated for 7 days by microdilution method
[4] = tested on: Mycobacterium tuberculosis; assay: Ratio of MIC for 1-(2-(4-((5-chloro-6-methylpyridin-3-yl)methylamino)piperidin-1-yl)ethyl)-7-fluoro-1,5-naphthyridin-2(1H)-one resistant Mycobacterium tuberculosis H37Rv harboring DNA gyraseA D89N mutant to MIC for Mycobacterium tuberculosis H37Rv ATCC 27294
[5] = tested on: Mycobacterium tuberculosis; assay: Antimycobacterial activity against 6-((1-(2-(7-chloro-2-oxo-1,8-naphthyridin-1(2H)-yl)ethyl)piperidin-4-ylamino)methyl)-2H-pyrido[3,2-b][1,4]oxazin-3(4H)-one resistant Mycobacterium tuberculosis H37Rv harboring DNA gyraseA A74V mutant incubated for 7 days by microdilution method

Row | Structure (SMILES) | MIC [1] [µM] | Ratio [2] | MIC [3] [µM] | Ratio [4] | MIC [5] [µM]
1 | O=C1COc2ccc(CNC3CCN(CCn4c(=O)ccc5ccc(Oc6cncnc6)nc54)CC3)nc2N1 | >100 | >25 | 0.06 (≈ 0.0317 µg/mL) | >25 | 50 (≈ 26.4 µg/mL)
2 | O=C1COc2ccc(CN[C@@H]3CCN(CCn4c(=O)ccc5ncc(Oc6cccnc6)cc54)C[C@@H]3F)nc2N1 | >100 | – | 0.39 (≈ 0.213 µg/mL) | – | 50 (≈ 27.3 µg/mL)
3 | O=C1COc2ccc(CNC3CCN(CCn4c(=O)ccc5ccc(Cl)nc54)CC3)nc2N1 | >100 | – | <0.19 | – | 4 (≈ 1.88 µg/mL)
4 | Cc1ncc(CNC2CCN(CCn3c(=O)ccc4ncc(F)cc43)CC2)cc1Cl | >100 | – | <0.19 | – | 2 (≈ 0.86 µg/mL)
5 | O=C1COc2ccc(CNC3CCN(CCn4c(=O)ccc5ccc(Oc6cccnc6)nc54)CC3)nc2N1 | >100 | >25 | 0.78 (≈ 0.412 µg/mL) | >25 | 8 (≈ 4.22 µg/mL)
6 | O=C(O)c1cn(C2CC2)c2cc(N3CCNCC3)c(F)cc2c1=O [CIPROFLOXACIN] | 16 (≈ 5.3 µg/mL) | – | 8 (≈ 2.65 µg/mL) | – | 0.5 (≈ 0.166 µg/mL)
7 | NNC(=O)c1ccncc1 [ISONIAZID] | 0.03 (≈ 0.00411 µg/mL) | – | 0.06 (≈ 0.00823 µg/mL) | – | 0.06 (≈ 0.00823 µg/mL)
8 | COc1c(N2C[C@@H]3CCCN[C@@H]3C2)c(F)cc2c(=O)c(C(=O)O)cn(C3CC3)c12 [MOXIFLOXACIN] | 2 (≈ 0.803 µg/mL) | – | 4 (≈ 1.61 µg/mL) | – | 0.25 (≈ 0.1 µg/mL)
9 | CO[C@H]1/C=C/O[C@@]2(C)Oc3c(C)c(O)c4c(O)c(c(/C=N/N5CCN(C)CC5)c(O)c4c3C2=O)NC(=O)/C(C)=C\C=C\[C@H](C)[C@H](O)[C@@H](C)[C@@H](O)[C@@H](C)[C@H](OC(C)=O)[C@@H]1C [RIFAMPIN] | – | – | 0.008 (≈ 0.00658 µg/mL) | – | 0.008 (≈ 0.00658 µg/mL)
